Tested on: AMPA receptors
Test: Excitatory fluxes induced by AMPA in Xenopus oocytes injected with rat cerebral cortex mRNA (2-electrode voltage-clamp)
Type: cell-based
Conditions: rat cortex poly-(A+) mRNA, AMPA 10 μM
Description: Study of the Excitatory Fluxes Induced by AMPA in Xenopus oocytes
mRNAs are prepared from cerebral cortex of male Wistar rat by the guanidinium thiocyanate/phenyl/chloroform method. The poly-(A^+) mRNAs are isolated by chromatography on oligo-dT cellulose and injected in an amount of 50 ng per oocyte. The oocytes are left to incubate for 2 to 3 days at 18° C. to allow expression of the receptors and are then stored at from 8 to 10° C.
Electrophysiological recording is carried out in a Plexiglass® chamber at from 20 to 24° C. in OR2 medium (J. Exp. Zool., 1973, 184, 321-334) by the 2-electrode “voltage-clamp” method, a 3rd electrode being placed in the bath to serve as reference.
All the compounds are administered via the incubation medium and the electric current is measured at the end of the period of administration. AMPA is used at a concentration of 10 μM. For each compound studied, the concentration that doubles (EC2X) or quintuples (EC5X) the intensity of the current induced by AMPA alone (5 to 50 nA) is determined.

SMILES | EC2X (concentration that doubles the intensity of the current induced by AMPA alone) [µM] | EC5X (concentration that quintuples the intensity of the current induced by AMPA alone) [µM]
CCN1CNS(=O)(=O)c2cc(Oc3ccccc3)ccc21 [Example 29, 4-Ethyl-7-phenoxy-3,4-dihydro-2H-1,2,4-benzothiadiazine 1,1-dioxide] | 1.4 | 4.5
O=S1(=O)NC2CCCN2c2ccc(Oc3ccccc3)cc21 (single isomer, unassigned) [Example 3, 7-Phenoxy-2,3,3a,4-tetrahydro-1H-pyrrolo[2,1-c][1,2,4]-benzothiadiazine 5,5-dioxide, α Isomer] | 0.8 | 3.6

Tested on: not given
Test: not given
Conditions: not given

melting point [°C] | SMILES
143 to 145 | CCCN1CNS(=O)(=O)c2cc(Oc3ccccc3)ccc21 [Example 30, 4-Propyl-7-phenoxy-3,4-dihydro-2H-1,2,4-benzothiadiazine 1,1-dioxide]
175 | O=S1(=O)NC2CCCN2c2ccc(Oc3cccc(OC(F)(F)F)c3)cc21 (centres unmarked) [Example 19, 7-(3-Trifluoromethoxyphenoxy)-2,3,3a,4-tetrahydro-1H-pyrrolo-[2,1-c][1,2,4]benzothiadiazine 5,5-dioxide]
190 to 195 | Cc1cccc(Oc2ccc3c(c2)S(=O)(=O)NC2CCCN32)c1 (centres unmarked) [Example 8, 7-(3-Methylphenoxy)-2,3,3a,4-tetrahydro-1H-pyrrolo[2,1-c][1,2,4]-benzothiadiazine 5,5-dioxide]
175 to 176 | COc1ccccc1Oc1ccc2c(c1)S(=O)(=O)NC1CCCN21 (centres unmarked) [Example 13, 7-(2-Methoxyphenoxy)-2,3,3a,4-tetrahydro-1H-pyrrolo[2,1-c][1,2,4]-benzothiadiazine 5,5-dioxide]
150 | CCOc1cccc(Oc2ccc3c(c2)S(=O)(=O)NC2CCCN32)c1 (centres unmarked) [Example 18, 7-(3-Ethoxyphenoxy)-2,3,3a,4-tetrahydro-1H-pyrrolo[2,1-c][1,2,4]-benzothiadiazine 5,5-dioxide]
179 to 181 | CCN1CNS(=O)(=O)c2cc(Oc3ccccc3)ccc21 [Example 29, 4-Ethyl-7-phenoxy-3,4-dihydro-2H-1,2,4-benzothiadiazine 1,1-dioxide]
91 to 93 | CCN1CNS(=O)(=O)c2cc(Oc3cccc(OC)c3)ccc21 [Example 32, 4-Ethyl-7-(3-methoxyphenoxy)-3,4-dihydro-2H-1,2,4-benzothiadiazine 1,1-dioxide]
227 to 230 | N#Cc1cccc(Oc2ccc3c(c2)S(=O)(=O)NC2CCCN32)c1 (centres unmarked) [Example 6, 3-[(5,5-Dioxido-2,3,3a,4-tetrahydro-1H-pyrrolo [2,1-c][1,2,4]benzothiadiazin-7-yl)oxy]benzonitrile]
234 to 236 | O=S1(=O)NC2CCCN2c2ccc(Oc3ccc4ccccc4c3)cc21 (centres unmarked) [Example 21, 7-(2-Naphthyloxy)-2,3,3a,4-tetrahydro-1H-pyrrolo[2,1-c][1,2,4]-benzothiadiazine 5,5-dioxide]
171 to 172 | CC(C)c1cccc(Oc2ccc3c(c2)S(=O)(=O)NC2CCCN32)c1 (centres unmarked) [Example 36, 7-(3-Isopropylphenoxy)-2,3,3a,4-tetrahydro-1H-pyrrolo[2,1-c][1,2,4]-benzothiadiazine 5,5-dioxide]
160 | CSc1cccc(Oc2ccc3c(c2)S(=O)(=O)NC2CCCN32)c1 (centres unmarked) [Example 34, 7-(3-Methylsulphanylphenoxy)-2,3,3a,4-tetrahydro-1H-pyrrolo-[2,1-c][1,2,4]benzothiadiazine 5,5-dioxide]
143 to 146 | CCN1CNS(=O)(=O)c2cc(Oc3cccc(C#N)c3)ccc21 [Example 31, 3-[(4-Ethyl-1,1-dioxido-3,4-dihydro-2H-1,2,4-benzothiadiazin-7-yl)oxy]benzonitrile]
109 to 111 | CCN1CNS(=O)(=O)c2cc(Oc3ccc(C)c(C)c3)ccc21 [Example 61, 7-(3,4-Dimethylphenoxy)-4-ethyl-3,4-dihydro-2H-1,2,4-benzothiadiazine 1,1-dioxide]
193 to 195 | O=S1(=O)NC2CCCN2c2ccc(Oc3cccc(Br)c3)cc21 (centres unmarked) [Example 38, 7-(3-Bromophenoxy)-2,3,3a,4-tetrahydro-1H-pyrrolo[2,1-c][1,2,4]-benzothiadiazine 5,5-dioxide]
143 to 144 | CCc1cccc(Oc2ccc3c(c2)S(=O)(=O)NC2CCCN32)c1 (centres unmarked) [Example 35, 7-(3-Ethylphenoxy)-2,3,3a,4-tetrahydro-1H-pyrrolo [2,1-c][1,2,4]-benzothiadiazine 5,5-dioxide]
223 to 227 | COC(=O)c1cccc(Oc2ccc3c(c2)S(=O)(=O)NC2CCCN32)c1 (centres unmarked) [Example 26, Methyl 3-[(5,5-dioxido-2,3,3a,4-tetrahydro-1H-pyrrolo[2,1-c][1,2,4]-benzothiadiazin-7-yl)oxy]benzoate]
188 to 191 | COc1ccc(Oc2ccc3c(c2)S(=O)(=O)NC2CCCN32)cc1 (centres unmarked) [Example 9, 7-(4-Methoxyphenoxy)-2,3,3a,4-tetrahydro-1H-pyrrolo[2,1-c][1,2,4]-benzothiadiazine 5,5-dioxide]
194 to 198 | O=S1(=O)NC2CCCN2c2ccc(Oc3cccc(Cl)c3)cc21 (centres unmarked) [Example 17, 7-(3-Chlorophenoxy)-2,3,3a,4-tetrahydro-1H-pyrrolo[2,1-c][1,2,4]-benzothiadiazine 5,5-dioxide]
72 to 75 | CCN1CNS(=O)(=O)c2cc(Oc3cccc(C)c3)ccc21 [Example 57, 4-Ethyl-7-(3-methylphenoxy)-3,4-dihydro-2H-[1,2,4]benzothiadiazine 1,1-dioxide]
201 to 203 | O=S1(=O)NC2CCCN2c2ccc(Oc3cc(C(F)(F)F)cc(C(F)(F)F)c3)cc21 (centres unmarked) [Example 16, 7-[3,5-Di(trifluoromethyl)phenoxy]-2,3,3a,4-tetrahydro-1H-pyrrolo[2,1-c][1,2,4]benzothiadiazine 5,5-dioxide]
242 to 245 | N#Cc1ccc(Oc2ccc3c(c2)S(=O)(=O)NC2CCCN32)cc1 (centres unmarked) [Example 5, 4-[(5,5-Dioxido-2,3,3a,4-tetrahydro-1H-pyrrolo[2,1-c][1,2,4]benzothiadiazin-7-yl)oxy]benzonitrile]
222 to 226 | Cc1ccc(Oc2ccc3c(c2)S(=O)(=O)NC2CCCN32)cc1 (centres unmarked) [Example 7, 7-(4-Methylphenoxy)-2,3,3a,4-tetrahydro-1H-pyrrolo[2,1-c][1,2,4]-benzothiadiazine 5,5-dioxide]
227 to 229 | O=S1(=O)NC2CCCN2c2ccc(Oc3cccc4ccccc34)cc21 (centres unmarked) [Example 20, 7-(1-Naphthyloxy)-2,3,3a,4-tetrahydro-1H-pyrrolo[2,1-c][1,2,4]-benzothiadiazine 5,5-dioxide]
165 to 168 | CCN1CNS(=O)(=O)c2cc(Oc3cccc(NS(C)(=O)=O)c3)ccc21 [Example 58, N-{3-[(4-Ethyl-1,1-dioxido-3,4-dihydro-2H-1,2,4-benzothiadiazin-7-yl)oxy]phenyl}methanesulphonamide]
201 to 204 | O=[N+]([O-])c1cccc(Oc2ccc3c(c2)S(=O)(=O)NC2CCCN32)c1 (centres unmarked) [Example 15, 7-(3-Nitrophenoxy)-2,3,3a,4-tetrahydro-1H-pyrrolo[2,1-c][1,2,4]-benzothiadiazine 5,5-dioxide]
201 | O=S1(=O)NC2CCCN2c2ccc(Oc3cccc(F)c3)cc21 (centres unmarked) [Example 37, 7-(3-Fluorophenoxy)-2,3,3a,4-tetrahydro-1H-pyrrolo [2,1-c][1,2,4]-benzothiadiazine 5,5-dioxide]
164 to 166 | CCN1CNS(=O)(=O)c2cc(Oc3cccc(C(C)=O)c3)ccc21 [Example 59, 1-{3-[(4-Ethyl-1,1-dioxido-3,4-dihydro-2H-1,2,4-benzothiadiazin-7-yl)oxy]phenyl}ethanone]
179 to 182 | O=S1(=O)NC2CCCN2c2ccc(Oc3cccc(OCc4ccccc4)c3)cc21 (centres unmarked) [Example 22, 7-(3-Benzyloxyphenoxy)-2,3,3a,4-tetrahydro-1H-pyrrolo-[2,1-c][1,2,4]benzothiadiazine 5,5-dioxide]

From patent publication US20050124606A1, “Novel benzothiazine and benzothiadiazine derivatives method for preparing same and pharmaceutical compositions containing same” (priority 2001, published 2005)
